From patent US5439915A, “Pyrido[3,4-B]indole carboxamide derivatives as serotonergic agents” (American Home Products Corporation, priority 1994, dated 1995)

Target: T1, 5-HT1A serotonin receptor (Rattus norvegicus, UniProt P19327)
T1 construct: following the procedure of Hall et al., J. Neurochem; 44 1685 (1985); from tissue
T1 sequence (P19327 1-422): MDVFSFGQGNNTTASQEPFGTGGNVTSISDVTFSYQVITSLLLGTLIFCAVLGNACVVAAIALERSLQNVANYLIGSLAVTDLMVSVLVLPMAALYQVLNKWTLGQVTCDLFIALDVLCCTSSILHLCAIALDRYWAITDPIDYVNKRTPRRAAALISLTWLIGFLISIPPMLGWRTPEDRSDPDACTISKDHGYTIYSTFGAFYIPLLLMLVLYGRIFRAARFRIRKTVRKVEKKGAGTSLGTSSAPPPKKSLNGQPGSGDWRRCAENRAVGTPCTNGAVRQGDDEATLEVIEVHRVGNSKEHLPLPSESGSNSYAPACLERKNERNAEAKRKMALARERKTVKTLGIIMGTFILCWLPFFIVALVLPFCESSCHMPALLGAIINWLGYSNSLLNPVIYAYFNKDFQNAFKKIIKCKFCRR
Assay: displacement of [^3 H] 8-OHDPAT (dipropylaminotetralin) from the 5-HT1A serotonin receptor (Hall et al.)
Conditions: read-out: 5-HT1A Binding (IC50)
Procedure: High affinity for the serotonin 5-HT1A receptor for the compounds of this invention was established by testing them in accordance with the standard pharmacological test procedure in which the compound's ability to displace [^3 H] 8-OHDPAT (dipropylaminotetralin) from the 5-HT1A serotonin receptor was determined following the procedure of Hall et al., J. Neurochem. 44 1685 (1985).

SMILES	IC50 [µM]
C[C@H](CN1CCc2c(n(C)c3ccccc23)C1)N(C(=O)C1CCCCC1)c1ccccn1 [Example 3]	0.0781
C[C@H](CN1CCc2c([nH]c3ccccc23)C1)N(C(=O)C1CCCCC1)c1ccccn1 [Example 1]	0.0349
C[C@H](CN1CCc2c([nH]c3ccccc23)C1)N(C(=O)C12CC3CC(CC(C3)C1)C2)c1ccccn1 [Example 2]	0.0325
